Test: Phase 1 single agent studies in Japanese and Chinese participants (C4891016, C4891018): adverse events
[1] = TEAE treatment related, 200 mg, N = 15

From the text: TEAE's from participants in both studies have been combined and are described below.

For `O=C1CC[C@H](N2Cc3cc(N4CCN(CC5CCN(c6ccc([C@@H]7c8ccc(O)cc8CC[C@@H]7c7ccccc7)cc6)CC5)CC4)ccc3C2=O)C(=O)N1` [Compound A, (S)-3-(5-(4-((1-(4-((1R,2S)-6-hydroxy-2-phenyl-1,2,3,4-tetrahydronaphthalen-1-yl)phenyl)piperidin-4-yl)methyl)piperazin-1-yl)-1-oxoisoindolin-2-yl)piperidine-2,6-dione], which “participants with a TRAE” value (200 mg) is on record?
Its value is 11 of 15 participants.

And the “participants with a TEAE” value (200 mg, 15 evaluable)?
Its value is 73.3%.

And the “participants with grade 3-4 TEAE” value (200 mg, 15 evaluable)?
Its value is 33.4%.

What about the “TEAE Alanine aminotransferase increased” value (200 mg, N=15) of the same compound?
Its value is 26.7%.

And the TEAE anemia (200 mg, N=15)?
Its TEAE anemia is 40.0%.

What about the “TEAE electrocardiogram QT prolonged” value (200 mg, N=15) of the same compound?
The value was 33.3%.

And the “TEAEs constipation, hyperuricemia, hypokalaemia, neutrophil count decreased, each” value (200 mg, N=15)?
Its value is 20.0%.

What about the “TRAEs alanine aminotransferase increased and electrocardiogram QT prolonged, each” value (200 mg, N=15) of the same compound?
Its value is 20.0%.

What about the “TRAEs aspartate aminotransferase increased, constipation, hyperuricemia, neutrophil count decreased, each” value (200 mg, N=15) of the same compound?
The value was 13.3%.

What about the SAEs (3 participants, 6 Jun 2023) of the same compound?
The SAEs was 3 SAEs.

What about the “Abdominal discomfort, Grade 1” value [1] of the same compound?
The value was 1 (6.7) n (%).

And the “Abdominal discomfort, Grade 2” value [1]?
Its value is 0 n (%).

And the “Abdominal discomfort, Grade 3” value [1]?
Its value is 0 n (%).

And the “Abdominal discomfort, Grade 4” value [1]?
The value was 0 n (%).

What about the “Abdominal discomfort, Grade 5” value [1] of the same compound?
The value was 0 n (%).

What about the “Abdominal discomfort, Missing or Unknown” value [1] of the same compound?
Its value is 0 n (%).

What about the “Abdominal discomfort, Total” value [1] of the same compound?
Its value is 1 (6.7) n (%).

What about the “Alanine aminotransferase increased, Grade 1” value [1] of the same compound?
The value was 3 (20.0) n (%).

What about the “Alanine aminotransferase increased, Grade 2” value [1] of the same compound?
The value was 0 n (%).

And the “Alanine aminotransferase increased, Grade 3” value [1]?
Its value is 0 n (%).

And the “Alanine aminotransferase increased, Grade 4” value [1]?
Its value is 0 n (%).

And the “Alanine aminotransferase increased, Grade 5” value [1]?
The value was 0 n (%).

What about the “Alanine aminotransferase increased, Missing or Unknown” value [1] of the same compound?
The value was 0 n (%).

What about the “Alanine aminotransferase increased, Total” value [1] of the same compound?
Its value is 3 (20.0) n (%).

And the “Alopecia, Grade 1” value [1]?
Its value is 1 (6.7) n (%).

And the “Alopecia, Grade 2” value [1]?
The value was 0 n (%).

And the “Alopecia, Grade 3” value [1]?
Its value is 0 n (%).

And the “Alopecia, Grade 4” value [1]?
Its value is 0 n (%).

What about the “Alopecia, Grade 5” value [1] of the same compound?
The value was 0 n (%).

And the “Alopecia, Missing or Unknown” value [1]?
Its value is 0 n (%).

And the “Alopecia, Total” value [1]?
Its value is 1 (6.7) n (%).

What about the “Anemia, Grade 1” value [1] of the same compound?
The value was 0 n (%).

What about the “Anemia, Grade 2” value [1] of the same compound?
The value was 1 (6.7) n (%).

And the “Anemia, Grade 3” value [1]?
Its value is 0 n (%).

And the “Anemia, Grade 4” value [1]?
Its value is 0 n (%).

And the “Anemia, Grade 5” value [1]?
Its value is 0 n (%).

And the “Anemia, Missing or Unknown” value [1]?
Its value is 0 n (%).

What about the “Anemia, Total” value [1] of the same compound?
Its value is 1 (6.7) n (%).

And the “Arthralgia, Grade 1” value [1]?
The value was 1 (6.7) n (%).

What about the “Arthralgia, Grade 2” value [1] of the same compound?
The value was 0 n (%).

And the “Arthralgia, Grade 3” value [1]?
Its value is 0 n (%).

And the “Arthralgia, Grade 4” value [1]?
Its value is 0 n (%).

And the “Arthralgia, Grade 5” value [1]?
The value was 0 n (%).

And the “Arthralgia, Missing or Unknown” value [1]?
The value was 0 n (%).

What about the “Arthralgia, Total” value [1] of the same compound?
Its value is 1 (6.7) n (%).

What about the “Aspartate aminotransferase increased, Grade 1” value [1] of the same compound?
Its value is 2 (13.3) n (%).

What about the “Aspartate aminotransferase increased, Grade 2” value [1] of the same compound?
Its value is 0 n (%).

What about the “Aspartate aminotransferase increased, Grade 3” value [1] of the same compound?
The value was 0 n (%).

And the “Aspartate aminotransferase increased, Grade 4” value [1]?
The value was 0 n (%).

And the “Aspartate aminotransferase increased, Grade 5” value [1]?
Its value is 0 n (%).

What about the “Aspartate aminotransferase increased, Missing or Unknown” value [1] of the same compound?
Its value is 0 n (%).

What about the “Aspartate aminotransferase increased, Total” value [1] of the same compound?
The value was 2 (13.3) n (%).

What about the “Bilirubin conjugated increased, Grade 1” value [1] of the same compound?
The value was 0 n (%).

What about the “Bilirubin conjugated increased, Grade 2” value [1] of the same compound?
Its value is 1 (6.7) n (%).

What about the “Bilirubin conjugated increased, Grade 3” value [1] of the same compound?
Its value is 0 n (%).

What about the “Bilirubin conjugated increased, Grade 4” value [1] of the same compound?
The value was 0 n (%).

And the “Bilirubin conjugated increased, Grade 5” value [1]?
Its value is 0 n (%).

And the “Bilirubin conjugated increased, Missing or Unknown” value [1]?
Its value is 0 n (%).

And the “Bilirubin conjugated increased, Total” value [1]?
Its value is 1 (6.7) n (%).

What about the “Blood and lymphatic system disorders, Grade 1” value [1] of the same compound?
The value was 0 n (%).

And the “Blood and lymphatic system disorders, Grade 2” value [1]?
The value was 1 (6.7) n (%).

And the “Blood and lymphatic system disorders, Grade 3” value [1]?
The value was 0 n (%).

And the “Blood and lymphatic system disorders, Grade 4” value [1]?
The value was 0 n (%).

What about the “Blood and lymphatic system disorders, Grade 5” value [1] of the same compound?
The value was 0 n (%).

What about the “Blood and lymphatic system disorders, Missing or Unknown” value [1] of the same compound?
The value was 0 n (%).

What about the “Blood and lymphatic system disorders, Total” value [1] of the same compound?
Its value is 1 (6.7) n (%).

And the “Blood bilirubin increased, Grade 1” value [1]?
The value was 0 n (%).

What about the “Blood bilirubin increased, Grade 2” value [1] of the same compound?
Its value is 1 (6.7) n (%).

What about the “Blood bilirubin increased, Grade 3” value [1] of the same compound?
Its value is 0 n (%).

And the “Blood bilirubin increased, Grade 4” value [1]?
The value was 0 n (%).

What about the “Blood bilirubin increased, Grade 5” value [1] of the same compound?
The value was 0 n (%).

And the “Blood bilirubin increased, Missing or Unknown” value [1]?
Its value is 0 n (%).

What about the “Blood bilirubin increased, Total” value [1] of the same compound?
Its value is 1 (6.7) n (%).

And the “Blood bilirubin unconjugated increased, Grade 1” value [1]?
The value was 1 (6.7) n (%).

And the “Blood bilirubin unconjugated increased, Grade 2” value [1]?
The value was 0 n (%).

What about the “Blood bilirubin unconjugated increased, Grade 3” value [1] of the same compound?
Its value is 0 n (%).

And the “Blood bilirubin unconjugated increased, Grade 4” value [1]?
The value was 0 n (%).

And the “Blood bilirubin unconjugated increased, Grade 5” value [1]?
The value was 0 n (%).

And the “Blood bilirubin unconjugated increased, Missing or Unknown” value [1]?
Its value is 0 n (%).

What about the “Blood bilirubin unconjugated increased, Total” value [1] of the same compound?
The value was 1 (6.7) n (%).

What about the “Cardiac disorders, Grade 1” value [1] of the same compound?
The value was 1 (6.7) n (%).

And the “Cardiac disorders, Grade 2” value [1]?
The value was 0 n (%).

And the “Cardiac disorders, Grade 3” value [1]?
Its value is 0 n (%).

What about the “Cardiac disorders, Grade 4” value [1] of the same compound?
The value was 0 n (%).

And the “Cardiac disorders, Grade 5” value [1]?
The value was 0 n (%).

And the “Cardiac disorders, Missing or Unknown” value [1]?
The value was 0 n (%).

What about the “Cardiac disorders, Total” value [1] of the same compound?
Its value is 1 (6.7) n (%).

And the “Constipation, Grade 1” value [1]?
The value was 2 (13.3) n (%).

What about the “Constipation, Grade 2” value [1] of the same compound?
The value was 0 n (%).

What about the “Constipation, Grade 3” value [1] of the same compound?
Its value is 0 n (%).

What about the “Constipation, Grade 4” value [1] of the same compound?
The value was 0 n (%).

What about the “Constipation, Grade 5” value [1] of the same compound?
Its value is 0 n (%).

And the “Constipation, Missing or Unknown” value [1]?
The value was 0 n (%).

And the “Constipation, Total” value [1]?
The value was 2 (13.3) n (%).

And the “Decreased appetite, Grade 1” value [1]?
Its value is 1 (6.7) n (%).

And the “Decreased appetite, Grade 2” value [1]?
Its value is 0 n (%).

What about the “Decreased appetite, Grade 3” value [1] of the same compound?
The value was 0 n (%).

And the “Decreased appetite, Grade 4” value [1]?
The value was 0 n (%).

And the “Decreased appetite, Grade 5” value [1]?
The value was 0 n (%).

And the “Decreased appetite, Missing or Unknown” value [1]?
Its value is 0 n (%).

What about the “Decreased appetite, Total” value [1] of the same compound?
The value was 1 (6.7) n (%).

And the “Dizziness, Grade 1” value [1]?
Its value is 1 (6.7) n (%).

What about the “Dizziness, Grade 2” value [1] of the same compound?
The value was 0 n (%).

And the “Dizziness, Grade 3” value [1]?
The value was 0 n (%).

What about the “Dizziness, Grade 4” value [1] of the same compound?
Its value is 0 n (%).

And the “Dizziness, Grade 5” value [1]?
The value was 0 n (%).

What about the “Dizziness, Missing or Unknown” value [1] of the same compound?
The value was 0 n (%).

And the “Dizziness, Total” value [1]?
Its value is 1 (6.7) n (%).

And the “Electrocardiogram QT prolonged, Grade 1” value [1]?
The value was 2 (13.3) n (%).

And the “Electrocardiogram QT prolonged, Grade 2” value [1]?
Its value is 0 n (%).

What about the “Electrocardiogram QT prolonged, Grade 3” value [1] of the same compound?
The value was 1 (6.7) n (%).

And the “Electrocardiogram QT prolonged, Grade 4” value [1]?
Its value is 0 n (%).

And the “Electrocardiogram QT prolonged, Grade 5” value [1]?
The value was 0 n (%).

What about the “Electrocardiogram QT prolonged, Missing or Unknown” value [1] of the same compound?
Its value is 0 n (%).

What about the “Electrocardiogram QT prolonged, Total” value [1] of the same compound?
The value was 3 (20.0) n (%).

What about the “Fatigue, Grade 1” value [1] of the same compound?
The value was 1 (6.7) n (%).

What about the “Fatigue, Grade 2” value [1] of the same compound?
The value was 0 n (%).

And the “Fatigue, Grade 3” value [1]?
Its value is 0 n (%).

And the “Fatigue, Grade 4” value [1]?
The value was 0 n (%).

What about the “Fatigue, Grade 5” value [1] of the same compound?
The value was 0 n (%).

What about the “Fatigue, Missing or Unknown” value [1] of the same compound?
The value was 0 n (%).

And the “Fatigue, Total” value [1]?
The value was 1 (6.7) n (%).

What about the “Gamma-glutamyl transferase increased, Grade 1” value [1] of the same compound?
The value was 1 (6.7) n (%).

And the “Gamma-glutamyl transferase increased, Grade 2” value [1]?
Its value is 0 n (%).

What about the “Gamma-glutamyl transferase increased, Grade 3” value [1] of the same compound?
Its value is 0 n (%).

What about the “Gamma-glutamyl transferase increased, Grade 4” value [1] of the same compound?
Its value is 0 n (%).

And the “Gamma-glutamyl transferase increased, Grade 5” value [1]?
The value was 0 n (%).

And the “Gamma-glutamyl transferase increased, Missing or Unknown” value [1]?
Its value is 0 n (%).

What about the “Gamma-glutamyl transferase increased, Total” value [1] of the same compound?
The value was 1 (6.7) n (%).

What about the “Gastrointestinal disorders, Grade 1” value [1] of the same compound?
Its value is 4 (26.7) n (%).

What about the “Gastrointestinal disorders, Grade 2” value [1] of the same compound?
The value was 0 n (%).

— US20260069588A1, “VEPDEGESTRANT FOR USE IN TREATING CANCER” (Arvinas Operation, Inc., priority 2022, published 2026)
